The values that follow are results of earlier work, collected in patent publication US11390612B2, “Polymorphic forms of Afatinib free base and Afatinib dimaleate” (FRESENIUS KABI ONCOLOGY LIMITED, priority 2015, dated 2022).

For this series the following is noted: as observed in WO 2013/052157.

Regarding `CN(C)C/C=C/C(=O)Nc1cc2c(Nc3ccc(F)c(Cl)c3)ncnc2cc1O[C@H]1CCOC1.O=C(O)/C=C\C(=O)O.O=C(O)/C=C\C(=O)O` [form A of Afatinib dimaleate], the hygroscopicity result is “hygroscopic in nature”. Also, where the note is “after absorbing moisture”, the “polymorphic conversion after absorbing moisture” value is on record as “converts to form E of Afatinib dimaleate”.
